# Results published in paper PMC7179274, “6′-β-Fluoro-Homoaristeromycin and 6′-Fluoro-Homoneplanocin A Are Potent Inhibitors of Chikungunya Virus Replication through Their Direct Effect on Viral Nonstructural Protein 1” (Antimicrobial Agents and Chemotherapy, 2020).
# Residue numbers refer to the chain shown, from its start. Entries after “also recorded” stand apart in the source; their conditions may differ. Like-named read-outs stand apart in the source and are kept apart here.
# Key:
# [1] = system: SFV; assay: CPE reduction assay, SFV
# [2] = target: T1, wt SFV nsP1 (Semliki forest virus, UniProt P08411); assay: nsP1 enzymatic activity assay (m7GMP-nsP1 intermediate formation), wt; settings: for Inhibition of wt SFV nsP1: 10 μM SAM
# T1 sequence (P08411 1-537): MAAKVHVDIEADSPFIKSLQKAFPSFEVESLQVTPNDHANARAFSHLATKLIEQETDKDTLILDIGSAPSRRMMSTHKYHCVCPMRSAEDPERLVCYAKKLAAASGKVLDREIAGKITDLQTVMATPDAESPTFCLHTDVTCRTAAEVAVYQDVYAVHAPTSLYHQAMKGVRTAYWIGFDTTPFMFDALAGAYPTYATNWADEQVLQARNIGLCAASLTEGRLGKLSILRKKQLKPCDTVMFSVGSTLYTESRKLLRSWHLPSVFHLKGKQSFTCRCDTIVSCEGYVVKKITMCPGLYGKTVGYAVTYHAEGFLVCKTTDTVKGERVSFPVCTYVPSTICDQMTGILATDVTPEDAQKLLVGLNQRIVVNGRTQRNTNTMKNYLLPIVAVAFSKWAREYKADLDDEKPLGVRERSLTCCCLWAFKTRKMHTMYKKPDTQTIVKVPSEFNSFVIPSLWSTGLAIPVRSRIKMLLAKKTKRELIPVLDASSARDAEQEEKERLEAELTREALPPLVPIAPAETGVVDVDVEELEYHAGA
# [3] = system: CHIKV; assay: CPE reduction assay, CHIKV
# [4] = system: SINV; assay: CPE reduction assay, SINV; settings: VeroE6 cells, MOI 0.025
# [5] = system: SFV; assay: Viral load reduction (single-cycle dose response) assay, SFV; format: cell-based, Semliki Forest virus; settings: 12.5 μM, VeroE6, MOI 5, 8 hpi, plaque assay
# [6] = target: T2, SFV nsP1 K231R+K300E (Semliki forest virus, UniProt P08411, K231R/K300E); format: biochemical
# T2 sequence (P08411 1-537 K231R/K300E): T1 sequence (P08411 1-537) with K231R, K300E
# [7] = system: VeroE6 cells; assay: Cytotoxicity in uninfected cells (MTS/PMS) of the CPE reduction assay
# [8] = system: CHIKV; assay: Time-of-drug-addition assay, CHIKV; settings: 10 μM, pretreated or treated early (−12 to 4 h)
# [9] = system: rCHIKV mutants; assay: microbe, parasite or virus in culture; format: cell-based, Chikungunya virus; settings: for EC50: read-out: Mean EC50 ± SD
# [10] = system: CHIKV; assay: Viral load reduction (single-cycle dose response) assay, CHIKV
# [11] = system: FHNA-resistant CHIKV variants; format: cell-based; settings: for Fold resistance: EC50 variant/EC50 wt; for EC50: read-out: Mean EC50 ± SD
# [12] = 1 mM compound + 1 mM NAD+, absence of DTT
# [13] = 1 mM, nonreducing conditions (absence of DTT)
smiles,measurement,setting,value
"Nc1ncnc2c1ncn2C1C(F)=C(CCO)C(O)C1O (centres unmarked) [FHNA, 6′-fluoro-homoneplanocin A]",SI (SFV),[1]; CC50/EC50,>48
same,EC50,"[1]; read-out: EC50 (SFV), VeroE6 cells, MOI 0.025, MTS at 40 hpi, mean ± SD",5200 ± 3200 nM
same,Effect on formation of m7GMP-nsP1 intermediate,"[2]; 50 μM to 1 mM, 100 μM SAM, 5 mM DTT",did not observe any inhibitory effect
same,Inhibition of wt SFV nsP1,[2]; [12],more than 50%
same,Effect on formation of m7GMP-nsP1 intermediate at low SAM,"[2]; 1 mM compound, 5 or 10 μM SAM",no direct inhibitory effect
same,Inhibition of wt SFV nsP1,[2]; [13],more than 40%
same,SI (CHIKV),[3]; CC50/EC50,">1,000"
same,EC50,"[3]; read-out: EC50 (CHIKV), VeroE6 cells, MOI 0.005, MTS at 96 hpi, mean ± SD",180 ± 110 nM
same,Protection against SINV infection,[4],did not confer protection; also recorded: not sensitive
same,Reduction of SFV infectious progeny,[5],> 1 log10
same,Response of mutant vs wt SFV nsP1 to treatment,"[6]; 50 μM to 1 mM, standard conditions",no difference between wt and mutant SFV nsP1 proteins
same,Further reduction in signal in the presence of NAD+,[6]; [12],about 6%
same,Reduction of the signal,"[6]; 1 mM compound + 1 mM NAD+, nonreducing conditions",25%
same,Reduction in signal,[6]; [13],about 20%
same,CC50,"[7]; read-out: CC50 (CHIKV assay), CHIKV assay format",> 250000 nM
same,CC50,"[7]; read-out: CC50 (SFV assay), SFV assay format",> 250000 nM
same,CC50,"[7]; read-out: CC50 (SINV assay), SINV assay format",> 250000 nM
same,CHIKV specific infectivity (genome copies vs infectious virus yield),[8],decrease in specific infectivity; also recorded: reduction in CHIKV-specific infectivity
same,Fold resistance,"[9]; rCHIKV nsP1-G230R + nsP1-K299E + nsP3-*524R, EC50 mutant/EC50 wt",122
same,EC50,[9]; rCHIKV nsP1-G230R + nsP1-K299E + nsP3-*524R,25600 ± 100 nM
same,Fold resistance,"[9]; rCHIKV nsP1-G230R + nsP1-K299E, EC50 mutant/EC50 wt",87
same,EC50,[9]; rCHIKV nsP1-G230R + nsP1-K299E,18200 ± 4200 nM
same,Fold resistance,"[9]; rCHIKV nsP1-G230R, EC50 mutant/EC50 wt",2
same,EC50,[9]; rCHIKV nsP1-G230R,500 ± 330 nM
same,Fold resistance,"[9]; rCHIKV nsP1-K299E, EC50 mutant/EC50 wt",2
same,EC50,[9]; rCHIKV nsP1-K299E,500 ± 80 nM
same,Fold resistance,"[9]; rCHIKV nsP1-L455P, EC50 mutant/EC50 wt",5
same,EC50,[9]; rCHIKV nsP1-L455P,1100 ± 1100 nM
same,Fold resistance,"[9]; rCHIKV nsP1-R171Q + nsP2-A511S + nsP3-H342Q, EC50 mutant/EC50 wt",49
same,EC50,[9]; rCHIKV nsP1-R171Q + nsP2-A511S + nsP3-H342Q,10200 ± 2600 nM
same,Fold resistance,"[9]; rCHIKV nsP1-R171Q + nsP2-A511S, EC50 mutant/EC50 wt",33
same,EC50,[9]; rCHIKV nsP1-R171Q + nsP2-A511S,6900 ± 2600 nM
same,Fold resistance,"[9]; rCHIKV nsP1-R171Q + nsP3-A137V, EC50 mutant/EC50 wt",18
same,EC50,[9]; rCHIKV nsP1-R171Q + nsP3-A137V,3900 ± 1300 nM
same,Fold resistance,"[9]; rCHIKV nsP1-R171Q, EC50 mutant/EC50 wt",3
same,EC50,[9]; rCHIKV nsP1-R171Q,580 ± 370 nM
same,Fold resistance,"[9]; rCHIKV nsP2-A511S + nsP3-H342Q, EC50 mutant/EC50 wt",1
same,Fold resistance,"[9]; rCHIKV nsP2-A511S, EC50 mutant/EC50 wt",9
same,EC50,[9]; rCHIKV nsP2-A511S,1900 ± 600 nM
same,Fold resistance,"[9]; rCHIKV nsP2-T675A + nsP3-H342Q (H342Q reverted back to wt), EC50 mutant/EC50 wt",36
same,EC50,[9]; rCHIKV nsP2-T675A + nsP3-H342Q (H342Q reverted back to wt),7600 ± 200 nM
same,Fold resistance,"[9]; rCHIKV nsP2-T675A + nsP3-H342Q + nsP3-*524R, EC50 mutant/EC50 wt",48
same,EC50,[9]; rCHIKV nsP2-T675A + nsP3-H342Q + nsP3-*524R,10100 ± 6800 nM
same,Fold resistance,"[9]; rCHIKV nsP2-T675A, EC50 mutant/EC50 wt",4
same,EC50,[9]; rCHIKV nsP2-T675A,800 ± 80 nM
same,Fold resistance,"[9]; rCHIKV nsP3-*524R, EC50 mutant/EC50 wt",40
same,EC50,[9]; rCHIKV nsP3-*524R,8500 ± 2300 nM
same,Fold resistance,"[9]; rCHIKV nsP3-G177R, EC50 mutant/EC50 wt",2
same,EC50,[9]; rCHIKV nsP3-G177R,510 ± 20 nM
same,Fold resistance,"[9]; rCHIKV nsP3-H342Q, EC50 mutant/EC50 wt",5
same,EC50,[9]; rCHIKV nsP3-H342Q,940 ± 10 nM
same,Fold resistance,"[9]; rCHIKV wt, EC50 recombinant mutant/EC50 wt",1
same,EC50,"[9]; rCHIKV wt, VeroE6, MOI 0.05",210 ± 70 nM
same,Reduction of CHIKV infectious progeny titers vs infected untreated cells,"[10]; 5 μM, VeroE6, MOI 1, 20 hpi, plaque assay",2.5 log10
same,"Levels of genomic, subgenomic and negative-strand CHIKV RNA","[10]; 0.1 to 10 μM, 8 hpi, in-gel hybridization",reduced in a dose-dependent manner
same,Fold resistance,[11]; CHIKV wt,1
same,EC50,"[11]; CHIKV wt, VeroE6, MOI 0.05",140 ± 10 nM
same,Fold resistance,[11]; variant 1a,100
same,EC50,[11]; variant 1a,14100 ± 10 nM
same,Fold resistance,[11]; variant 1b,24
same,EC50,[11]; variant 1b,3400 ± 600 nM
same,Fold resistance,[11]; variant 2a,12
same,EC50,[11]; variant 2a,1700 ± 700 nM
same,Fold resistance,[11]; variant 2b,21
same,EC50,[11]; variant 2b,3000 ± 600 nM
same,Fold resistance,[11]; variant 3,9
same,EC50,[11]; variant 3,1300 ± 800 nM
same,Fold resistance,[11]; variant 4,27
same,EC50,[11]; variant 4,3800 ± 300 nM
same,Fold resistance,[11]; variant 5,13
same,EC50,[11]; variant 5,1800 ± 800 nM
